From patent US20260258025A1, “INHIBITORS OF TDP-43 AND TAU AGGREGATION” (Aquinnah Pharmaceuticals, inc., priority 2023, published 2026)

system: TDP-43 aggregation; assay: TDP-43 aggregation assay in SY5Y TDP-43WT cells (high content imaging); type: cell-based; conditions: Homo sapiens, tetracycline induction 24 hrs, 1 hour compound pre-treatment, sodium arsenite 23 hrs, 8-point dose curve, percentage of cells with TDP-43 aggregates, read-out: IC50, Inhibition of TDP-43 Aggregation
Experimental: Exemplary compounds disclosed herein were evaluated for efficacy in inhibiting TDP-43 inclusions cellular imaging-based assays.
The cellular model was in human neuroblastoma SH SYSY cells (ATCC, cat #: CRL-2266). The parent cell line was first engineered to stably express a tetracycline repressor protein (designated as TREx-SY5Y cells, customer cell line development by ThermoFisher). Wild-type human TDP-43 with a C-terminus eGFP tag was synthesized and cloned into pcDNA5/TO expression vector (ThermoFisher). The plasmid was transfected into TREx-SY5Y cells using Lipofectamine 2000 and hygromycin resistant colonies were selected. Expression of TDP-43WT::eGFP was examined under fluorescent microscopy and Western blot upon tetracycline induction. The clone that was used for TDP-43 aggregation assay is referred to as SY5Y TDP-43WT cells hereafter.
Compound inhibition of TDP-43 aggregation was tested in an 8-point dose curve in 96-well format. Briefly, TDP-43WT::eGFP expression was induced with […] for 24 hrs (SY5Y TDP-43WT cells). The cells were then pre-treated for 1 hour with exemplary compounds before adding sodium arsenite to a final concentration of […] and incubated for another 23 hrs. At the end of the treatment the cell monolayers were washed in PBS and fixed in 4% paraformaldehyde (PFA), diluted from 16% stock (Electron Microscopy Sciences cat: #15710-S). The inhibitory effect on TDP-43 aggregation was measured using CellInsight CX7 high content imager (ThermoFisher). The percentage of cells with TDP-43 aggregates was calculated based on the total number of cells identified by DAPI staining. An 8-point dose response curve was generated, and the IC50 for each compound tested was determined (Table 3).
In Table 3 below, A indicates an IC50 (nM)<500 nM, B indicates an IC50 (nM) 500 nM to <1000 nM, C indicates an IC50 (nM) 1000 nM to <2000 nM, D indicates an IC50 (nM) 2000 nM to <6000 nM, and E indicates an IC50 (nM) 6000 nM to ≤10000 nM.

First: Cc1cc(-c2ccc(N3CCN(C4COC4)CC3)cc2)sc1C(=O)N1CC[C@H](N)C1 [Compound 154, (S)-(3-aminopyrrolidin-1-yl)(3-methyl-5-(4-(4-(oxetan-3-yl)piperazin-1-yl)phenyl)thiophen-2-yl)methanone]
Second: Cc1cc(-c2ccc(N3CCN(C)CC3)cc2)sc1C(=O)N1CC[C@H](N)C1 [Compound 185, (S)-(3-aminopyrrolidin-1-yl)(3-methyl-5-(4-(4-methylpiperazin-1-yl)phenyl)thiophen-2-yl)methanone]
The IC50 of the first is higher: 0.5 to 1 µM for the first, less than 0.5 µM for the second.

First: CCc1cc(-c2cc(C)c(C(=O)N3CC[C@H](N)C3)s2)ccc1C1CCOCC1 [Compound 157, (S)-(3-aminopyrrolidin-1-yl)(5-(3-ethyl-4-(tetrahydro-2H-pyran-4-yl)phenyl)-3-methylthiophen-2-yl)methanone]
Second: Cc1cc(-c2ccc3c(c2)CCC3N(C)C)sc1C(=O)N1CC[C@H](N)C1 (stereo partly drawn) [Compound 188, ((S)-3-aminopyrrolidin-1-yl)(5-(1-(dimethylamino)-2,3-dihydro-1H-inden-5-yl)-3-methylthiophen-2-yl)methanone]
The IC50 of the first is higher: 6 to 10 µM for the first, less than 0.5 µM for the second. The second is the more potent here.

First: Cc1cc(-c2ccc(C3CCN(C4CCNC4)CC3)cc2)sc1C(=O)N1CC[C@H](N)C1 (stereo partly drawn) [Compound 171, ((S)-3-aminopyrrolidin-1-yl)(3-methyl-5-(4-(1-(pyrrolidin-3-yl)piperidin-4-yl)phenyl)thiophen-2-yl)methanone]
Second: Cc1cc(-c2ccc(C3CCN(C4CNC4)CC3)cc2)sc1C(=O)N1CC[C@H](N)C1 [Compound 174, (S)-(3-aminopyrrolidin-1-yl)(5-(4-(1-(azetidin-3-yl)piperidin-4-yl)phenyl)-3-methylthiophen-2-yl)methanone]
The IC50 of the first is lower: 0.5 to 1 µM for the first, 1 to 2 µM for the second.

Cc1cc(-c2ccc(C3CCN(C4CSC4)CC3)cc2)sc1C(=O)N1CC[C@H](N)C1 [Compound 172, (S)-(3-aminopyrrolidin-1-yl){3-methyl-5-[4-(1-thietan-3-ylpiperidin-4-yl)phenyl]thiophen-2-yl} methanone] and Cc1cc(-c2ccc(C3CCN(C4CC4)CC3)cc2)sc1C(=O)N1CC[C@H](N)C1 [Compound 175, (S)-(3-aminopyrrolidin-1-yl)(5-(4-(1-cyclopropylpiperidin-4-yl)phenyl)-3-methylthiophen-2-yl)methanone] cannot be ordered by IC50: less than 0.5 µM for the first, less than 0.5 µM for the second.

First: Cc1cc(-c2ccc(C3CCN(C4CN(C)C4)CC3)cc2)sc1C(=O)N1CC[C@H](N)C1 [Compound 173, (S)-(3-aminopyrrolidin-1-yl)(3-methyl-5-(4-(1-(1-methylazetidin-3-yl)piperidin-4-yl)phenyl)thiophen-2-yl)methanone]
Second: Cc1cc(-c2ccc(C3CCN(C4CCNCC4)CC3)cc2)sc1C(=O)N1CC[C@H](N)C1 [Compound 177, (S)-(5-(4-([1,4′-bipiperidin]-4-yl)phenyl)-3-methylthiophen-2-yl)(3-aminopyrrolidin-1-yl)methanone]
The IC50 of the first is lower: less than 0.5 µM for the first, 0.5 to 1 µM for the second. The first is the more potent here.

First: Cc1cc(-c2ccc(N3CCC(C)CC3)cc2)sc1C(=O)N1CC[C@H](N)C1 [Compound 184, (S)-(3-aminopyrrolidin-1-yl)(3-methyl-5-(4-(4-methylpiperidin-1-yl)phenyl)thiophen-2-yl)methanone]
Second: Cc1cc(-c2ccc(C3(N(C)C)CCC3)cc2)sc1C(=O)N1CC[C@H](N)C1 [Compound 187, (S)-(3-aminopyrrolidin-1-yl)(5-(4-(1-(dimethylamino)cyclobutyl)phenyl)-3-methylthiophen-2-yl)methanone]
The IC50 of the first is higher: 2 to 6 µM for the first, 0.5 to 1 µM for the second.

Compared with Cc1cc(-c2ccc3c(c2)CCCC3N(C)C)sc1C(=O)N1CC[C@H](N)C1 (stereo partly drawn) [Compound 186, ((S)-3-aminopyrrolidin-1-yl)(5-(5-(dimethylamino)-5,6,7,8-tetrahydronaphthalen-2-yl)-3-methylthiophen-2-yl)methanone], Cc1cc(-c2ccc3c(c2)CN(C)CC3)sc1C(=O)N1CC[C@H](N)C1 [Compound 189] is lower in IC50: 2 to 6 µM for the first, less than 0.5 µM for the second. The second is the more potent here.
